From patent publication US20210134398A1, “Combinatorial Chemistry Computational System and Enhanced Selection Method” (Southern Methodist University, priority 2019, published 2021) come the findings set out here.

“Also recorded” adds a separate entry of the source.

Data set [1] deals with T1, Normal Human MDR1 P-glycoprotein (Homo sapiens, UniProt P08183).
T1 construct: made in house; host or cells: Pichia pastoris (P-gp); E. coli BL21 (DE3) (MSP1E3D1)
In words: ATPase activity assay (basal and verapamil-stimulated), P-gp in nanodiscs. It counts as biochemical. To be noted: for Effect on stimulated ATPase / Stimulated ATPase: in the presence of verapamil; for Stimulated ATPase / Basal ATPase: ± standard deviation; for Effect on basal ATPase / Basal ATPase: no added transport substrate. The procedure, abridged: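 Human MDR1 P-gp expressed in Pichia pastoris, purified in DDM/lysophosphatidyl choline micelles and reconstituted into membrane nanodiscs. ATP hydrolysis measured by a coupled enzyme assay, basal and with verapamil stimulation.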

The target of data set [2] is T2, Cysteineless Mouse MDR3 P-glycoprotein (Mus musculus, UniProt P21447, C1070A/C1121A/C1223A/C133A/C427A/C638A/C669A/C713A/C952A).
T2 construct: made in house; host or cells: Pichia pastoris
T2 sequence (P21447 whole entry C133A/C427A/C638A/C669A/C713A/C952A/C1070A/C1121A/C1223A): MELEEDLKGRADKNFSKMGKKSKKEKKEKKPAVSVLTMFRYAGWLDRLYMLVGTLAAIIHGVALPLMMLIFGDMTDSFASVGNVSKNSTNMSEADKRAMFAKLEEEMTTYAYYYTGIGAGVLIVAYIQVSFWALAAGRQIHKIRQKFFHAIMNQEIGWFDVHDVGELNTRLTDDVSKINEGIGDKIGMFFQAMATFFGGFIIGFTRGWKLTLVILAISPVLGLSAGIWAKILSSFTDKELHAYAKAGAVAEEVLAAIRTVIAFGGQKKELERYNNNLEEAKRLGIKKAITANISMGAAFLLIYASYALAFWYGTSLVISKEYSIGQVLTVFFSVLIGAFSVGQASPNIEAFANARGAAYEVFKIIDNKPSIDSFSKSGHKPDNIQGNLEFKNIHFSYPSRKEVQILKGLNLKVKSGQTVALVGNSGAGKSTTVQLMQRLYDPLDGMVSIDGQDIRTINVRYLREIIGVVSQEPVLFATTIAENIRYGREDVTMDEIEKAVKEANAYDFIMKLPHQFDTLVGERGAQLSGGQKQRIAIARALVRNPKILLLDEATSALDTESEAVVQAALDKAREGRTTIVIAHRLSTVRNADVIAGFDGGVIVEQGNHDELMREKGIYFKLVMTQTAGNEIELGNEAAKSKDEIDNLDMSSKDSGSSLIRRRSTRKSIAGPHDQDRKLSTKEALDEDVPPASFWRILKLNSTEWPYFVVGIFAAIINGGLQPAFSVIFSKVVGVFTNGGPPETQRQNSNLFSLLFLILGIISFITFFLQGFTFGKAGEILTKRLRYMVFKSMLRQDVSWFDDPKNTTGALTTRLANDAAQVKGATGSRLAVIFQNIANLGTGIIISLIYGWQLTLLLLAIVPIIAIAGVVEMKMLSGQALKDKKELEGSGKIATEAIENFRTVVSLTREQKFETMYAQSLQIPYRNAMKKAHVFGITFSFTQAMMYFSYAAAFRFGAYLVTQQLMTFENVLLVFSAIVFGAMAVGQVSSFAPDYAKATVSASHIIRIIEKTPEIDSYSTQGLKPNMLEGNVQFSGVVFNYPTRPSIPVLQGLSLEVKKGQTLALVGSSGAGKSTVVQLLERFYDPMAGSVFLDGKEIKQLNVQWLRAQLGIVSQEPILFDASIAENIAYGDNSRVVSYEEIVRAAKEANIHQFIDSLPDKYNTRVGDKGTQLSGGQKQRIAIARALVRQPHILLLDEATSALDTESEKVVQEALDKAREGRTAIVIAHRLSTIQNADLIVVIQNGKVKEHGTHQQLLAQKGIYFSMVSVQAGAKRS
In words: ATPase activity assay (basal and verapamil-stimulated), purified P-gp in mixed micelles. The class given is biochemical. To be noted: for Effect on stimulated ATPase / Stimulated ATPase: in the presence of verapamil; for Stimulated ATPase / Basal ATPase: ± standard deviation; for Effect on basal ATPase / Basal ATPase: no added transport substrate. The procedure, abridged:
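Cysteine-less murine MDR3 P-gp from Pichia pastoris, purified into DDM/lysophosphatidylcholine mixed micelles. ATP hydrolysis measured by a coupled enzyme assay, basal and verapamil-stimulated, with or without compound.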

The subject of data set [3] is P-gp overexpressing prostate cancer cell line, DU145TXR. In words: MTT cell viability assay, resensitization to paclitaxel. The class given is cell-based, human. To be noted: for Fold vs PTX (fold increased sensitivity): vs paclitaxel alone; for Fold vs PTX + 29: vs paclitaxel + parental compound 29. The gist of the method:
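DU145TXR cells were seeded for 24 h, then exposed for 48 h to paclitaxel alone or with P-gp inhibitor at 3, 5, 7 or 10 μM. Viability was read by MTT (4 h, A570) against DMSO-treated cells. Paclitaxel IC50 came from four-parameter fits, and fold sensitization was calculated from those IC50s.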
For orientation: Tetrazolium dyes change colour on reduction, which living cells bring about.

T1 sequence (P08183 whole entry): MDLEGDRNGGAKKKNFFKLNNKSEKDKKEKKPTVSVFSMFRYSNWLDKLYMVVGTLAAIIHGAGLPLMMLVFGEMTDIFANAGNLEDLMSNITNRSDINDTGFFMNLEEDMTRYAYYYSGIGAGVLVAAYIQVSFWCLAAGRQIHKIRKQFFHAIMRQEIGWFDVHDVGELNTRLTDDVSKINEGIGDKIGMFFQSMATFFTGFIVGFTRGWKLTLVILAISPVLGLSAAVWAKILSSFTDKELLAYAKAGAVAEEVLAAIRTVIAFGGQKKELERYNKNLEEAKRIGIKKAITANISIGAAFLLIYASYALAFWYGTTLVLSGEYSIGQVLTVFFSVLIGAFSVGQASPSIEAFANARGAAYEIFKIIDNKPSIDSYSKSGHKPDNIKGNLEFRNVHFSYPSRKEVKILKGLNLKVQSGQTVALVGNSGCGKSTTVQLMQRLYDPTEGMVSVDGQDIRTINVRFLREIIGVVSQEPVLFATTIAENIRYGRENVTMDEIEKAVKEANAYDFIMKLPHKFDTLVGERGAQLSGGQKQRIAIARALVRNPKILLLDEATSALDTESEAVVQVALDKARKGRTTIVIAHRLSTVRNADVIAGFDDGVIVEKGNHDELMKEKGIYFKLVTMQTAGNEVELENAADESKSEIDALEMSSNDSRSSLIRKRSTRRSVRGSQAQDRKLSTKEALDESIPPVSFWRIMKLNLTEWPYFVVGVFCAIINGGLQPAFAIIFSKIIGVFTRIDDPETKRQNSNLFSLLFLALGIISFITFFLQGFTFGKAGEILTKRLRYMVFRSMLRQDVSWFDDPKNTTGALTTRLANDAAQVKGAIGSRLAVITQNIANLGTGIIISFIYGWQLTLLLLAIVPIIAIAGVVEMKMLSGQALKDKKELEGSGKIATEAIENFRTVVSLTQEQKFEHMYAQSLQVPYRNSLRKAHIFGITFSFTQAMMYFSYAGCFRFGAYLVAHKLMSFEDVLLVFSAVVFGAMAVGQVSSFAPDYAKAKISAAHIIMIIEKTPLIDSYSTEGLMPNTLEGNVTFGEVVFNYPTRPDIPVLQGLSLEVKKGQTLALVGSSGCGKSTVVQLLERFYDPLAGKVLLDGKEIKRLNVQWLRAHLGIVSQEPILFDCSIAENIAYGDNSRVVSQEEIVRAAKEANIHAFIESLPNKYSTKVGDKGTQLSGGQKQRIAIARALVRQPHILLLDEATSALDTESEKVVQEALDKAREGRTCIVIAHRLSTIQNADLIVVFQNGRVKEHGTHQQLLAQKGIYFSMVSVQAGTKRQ

Regarding `Cc1cc(C)c(-c2cc(NC(=O)CSc3cccc(NC(=O)c4cncc(Br)c4)c3)n(-c3ccccc3)n2)cc1C` [29-551, 5-bromo-N-(3-((2-oxo-2-((1-phenyl-3-(2,4,5-trimethylphenyl)-1H-pyrazol-5-yl)amino)ethyl)thio)phenyl)nicotinamide], in data set [1], the “Effect on stimulated ATPase” value is reported as “inhibitor”, the “Stimulated ATPase” value is recorded as 27 ± 1 % of DMSO, the “Effect on basal ATPase” value is listed as “inhibitor” and the “Basal ATPase” value is reported as 72 ± 9 % of DMSO. Also, in data set [2] (listed as 551), the “Effect on stimulated ATPase” value is given as “inhibited activity similar to parental compound 29; also recorded: inhibited verapamil-stimulated ATPase activity” and the “Effect on basal ATPase” value was “stimulated basal ATPase activity”. In data set [2] (listed as SMU29-551), the “Effect on stimulated ATPase” value is “inhibitor” and the “Effect on basal ATPase” value is given as “stimulator”. Further, in data set [2], the “Stimulated ATPase” value is given as 62 ± 5 % of DMSO and the “Basal ATPase” value is 150 ± 6 % of DMSO. In addition, the “Fold vs PTX (fold increased sensitivity)” value in data set [3] (3 μM inhibitor) was 38 fold. Further, in data set [3] (3 to 10 μM inhibitor, listed as 551), the “Resensitization of DU145TXR to paclitaxel / MDR reversal (in words)” value is “re-sensitized; also recorded: more effective than 29 at all concentrations tested”.
As for `Cc1cc(C)c(-c2cc(NC(=O)CSc3nnc(C4CC4)[nH]3)n(-c3ccccc3)n2)cc1C` [compound 29, reference compound], in data set [1], the “Effect on stimulated ATPase” value is “inhibitor”, the “Stimulated ATPase” value was 62 ± 3 % of DMSO, the “Effect on basal ATPase” value is “none” and the “Basal ATPase” value was 88 ± 9 % of DMSO. Further, in data set [2], the “Effect on stimulated ATPase” value was “inhibitor”, the “Stimulated ATPase” value was 49 ± 2 % of DMSO, the “Effect on basal ATPase” value is reported as “none” and the “Basal ATPase” value is listed as 95 ± 11 % of DMSO. Moreover, in data set [3] (3 μM inhibitor), the “Fold vs PTX + 29” value came to 1 fold and the “Fold vs PTX (fold increased sensitivity)” value worked out at 3 fold. Also, in data set [3] (5 μM inhibitor), the “Fold vs PTX + 29” value is given as 1 fold and the “Fold vs PTX (fold increased sensitivity)” value stood at 11 fold. Further, in data set [3] (7 μM inhibitor), the “Fold vs PTX + 29” value is 1 fold and the “Fold vs PTX (fold increased sensitivity)” value amounted to 36 fold. In data set [3] (10 μM inhibitor), the “Fold vs PTX + 29” value was 1 fold and the “Fold vs PTX (fold increased sensitivity)” value worked out at 101 fold.
